Legend:
Bcl-2 = Bcl-2 (Homo sapiens, UniProt P10415); assay: Bcl-2 binding affinity analysis (fluorescence polarization binding assay)
Description: (§1) Bcl-2 and Bcl-xL binding can be determined using a variety of known methods. One such assay is a sensitive and quantitative in vitro binding assay using fluorescence polarization (FP) described by Wang, J. -L.; Zhang, Z -J.; Choksi, S.; Sjam. S.; Lu, Z.; Croce, C. M.; Alnenri, E. S.; Komgold, R.; Huang, Z. Cell permeable Bcl-2 binding peptides: a chemical approach to apoptosis induction in tumor cells. Cancer Res. 2000, 60, 1498-1502).
(§2) Bcl-2 and Bcl-xL binding affinity analysis data is presented below for various compounds of the invention.

Bcl-xL = Bcl-xL (Homo sapiens, UniProt Q07817); assay: Bcl-xL binding affinity analysis (fluorescence polarization binding assay); design: scale not given here
Sequence of Bcl-xL (Q07817 whole entry): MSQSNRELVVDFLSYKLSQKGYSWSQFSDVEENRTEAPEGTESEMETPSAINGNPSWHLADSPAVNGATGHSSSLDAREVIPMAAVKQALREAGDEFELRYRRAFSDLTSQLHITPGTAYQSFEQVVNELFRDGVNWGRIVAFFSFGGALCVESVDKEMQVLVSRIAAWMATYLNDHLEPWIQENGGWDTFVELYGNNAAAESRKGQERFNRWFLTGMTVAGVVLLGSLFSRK
Description: as §1, §2

Sequence of Bcl-2 (P10415 whole entry): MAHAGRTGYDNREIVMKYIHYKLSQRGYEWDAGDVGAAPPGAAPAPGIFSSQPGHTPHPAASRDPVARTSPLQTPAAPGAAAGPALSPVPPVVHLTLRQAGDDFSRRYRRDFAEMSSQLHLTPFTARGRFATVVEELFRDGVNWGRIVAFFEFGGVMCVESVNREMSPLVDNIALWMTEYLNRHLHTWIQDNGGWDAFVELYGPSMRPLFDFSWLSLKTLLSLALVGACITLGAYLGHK

Row | SMILES | Ki (Bcl-2) | Bcl-XL binding affinity Ki (Bcl-xL)
1 | C[C@H](O)[C@@H]1[C@H](CO)ON(Cc2cccc(C#CC3(N)CCCCC3)c2)[C@@H]1C(=O)NCCCN(C)c1ccccc1 [Compound 28] | 6 to 50 µM | ♯
2 | CC(O)[C@H]1[C@@H](CO)ON(Cc2cccc(C#CC(O)c3ccc(F)cc3)c2)[C@H]1C(=O)NCCCN(C)c1ccccc1 (stereo partly drawn) [Compound 29] | 0.8 to 6 µM | ♯
3 | C[C@@H]1[C@@H](NC(=O)[C@@H]2C([C@H](C)O)[C@H](CO)ON2Cc2ccc(C#CC3(N)CCCCC3)cc2)C[C@H]2C[C@@H]1C2(C)C (stereo partly drawn) [Compound 30] | 0.8 to 6 µM | ♯♯
4 | CC(O)[C@H]1[C@@H](CO)ON(Cc2cccc(C#CC(C)(C)c3ccccc3)c2)[C@H]1C(=O)NCCCN(C)c1ccccc1 (stereo partly drawn) [Compound 31] | 0.8 to 6 µM | ♯
5 | CC(O)C1[C@H](CO)ON(Cc2cccc(C#Cc3ccccn3)c2)[C@@H]1C(=O)N[C@H]1C[C@H]2CC([C@@H]1C)C2(C)C (stereo partly drawn) [Compound 32] | 0.8 to 6 µM | ♯
6 | C[C@@H](O)[C@H]1[C@@H](CO)ON(Cc2cccc(C#CC(O)c3ccccc3Cl)c2)[C@H]1C(=O)NCCCN(C)c1ccccc1 (stereo partly drawn) [Compound 33] | 0.8 to 6 µM | ♯♯
7 | C[C@H](O)[C@@H]1[C@H](CO)ON(Cc2cccc(C#C[C@]3(O)CC[C@H]4[C@@H]5CCc6cc(O)ccc6[C@H]5CC[C@@]43C)c2)[C@@H]1C(=O)NCCCN(C)c1ccccc1 [Compound 34] | > 50 µM | ♯
8 | C[C@@H]1[C@@H](NC(=O)[C@@H]2C(CO)[C@H]([C@H](C)O)ON2Cc2cccc(C#CC(C)(O)c3ccccc3)c2)C[C@H]2C[C@@H]1C2(C)C (stereo partly drawn) [Compound 35] | > 50 µM | ♯
9 | C[C@@H](O)[C@H]1[C@@H](CO)ON(Cc2cccc(C#CC(O)c3ccoc3)c2)[C@H]1C(=O)NCCCN(C)c1ccccc1 (stereo partly drawn) [Compound 36] | 0.8 to 6 µM | ♯♯
10 | C[C@@H](O)[C@H]1[C@@H](CO)ON(Cc2cccc(C#CC(C)(O)c3ccccc3)c2)[C@H]1C(=O)NCC1CCCCC1 (stereo partly drawn) [Compound 37] | 6 to 50 µM | ♯
11 | C[C@H](O)[C@@H]1[C@H](CO)ON(Cc2ccc(C#CCN(C)Cc3ccccc3)cc2)[C@@H]1C(=O)NCCC1=CCCCC1 [Compound 38] | > 50 µM | ♯♯
12 | C[C@@H](O)[C@H]1[C@@H](CO)ON(Cc2cccc(C#CC(O)Cc3ccccc3)c2)[C@H]1C(=O)NCCCN(C)c1ccccc1 (stereo partly drawn) [Compound 39] | 0.8 to 6 µM | ♯♯
13 | C[C@@H](O)[C@H]1[C@@H](CO)ON(Cc2cccc(C#CC3(O)CCCC3)c2)[C@H]1C(=O)NCC1CCCCC1 [Compound 40] | > 50 µM | ♯
14 | CCCCC[C@H](O)C#Cc1cccc(CN2O[C@@H](CO)[C@@H]([C@H](C)O)[C@H]2C(=O)NCCC(C)C)c1 [Compound 41] | > 50 µM | ♯
15 | C[C@@H](O)[C@H]1[C@@H](CO)ON(Cc2cccc(C#CC(O)c3ccc(-n4ccnc4)cc3)c2)[C@H]1C(=O)NCCCN(C)c1ccccc1 (stereo partly drawn) [Compound 42] | 0.8 to 6 µM | ♯♯
16 | C[C@@H]1[C@@H](NC(=O)[C@@H]2C([C@H](C)O)[C@H](CO)ON2Cc2cccc(C#CC(C)(O)c3ccccc3)c2)C[C@H]2C[C@@H]1C2(C)C (stereo partly drawn) [Compound 43] | 0.8 to 6 µM | ♯♯
17 | C[C@@H](O)[C@H]1[C@@H](CO)ON(Cc2cccc(C#CCCCCl)c2)[C@H]1C(=O)NCCCN(C)c1ccccc1 [Compound 44] | 6 to 50 µM | ♯
18 | CC(C)=CCC/C(C)=C/CNC(=O)[C@H]1[C@@H]([C@@H](C)O)[C@@H](CO)ON1Cc1cccc(C#CC(C)(O)c2ccccc2)c1 (stereo partly drawn) [Compound 45] | 6 to 50 µM | ♯
19 | CCCCC[C@H](O)C#Cc1ccc(CN2O[C@@H](CO)[C@@H]([C@H](C)O)[C@H]2C(=O)NCCCN(C)c2ccccc2)cc1 [Compound 46] | > 50 µM | ♯
20 | COC(=O)[C@@H](NC(=O)[C@@H]1[C@H]([C@H](C)O)[C@H](CO)ON1Cc1cccc(C#CC2(N)CCCCC2)c1)C(C)C [Compound 47] | > 50 µM | ♯♯
21 | C[C@@H](O)[C@H]1[C@@H](CO)ON(Cc2cccc(C#C[C@@H](O)c3ccccc3)c2)[C@H]1C(=O)NCCCN(C)c1ccccc1 [Compound 48] | 0.8 to 6 µM | ♯

Row | SMILES | Ki (Bcl-2) | Bcl-XL binding affinity Ki (Bcl-xL)
22 | C[C@@H](O)[C@H]1[C@@H](CO)ON(Cc2cccc(C#CC(C)(O)c3ccccc3)c2)[C@H]1C(=O)NCCCN(C)c1ccccc1 (stereo partly drawn) [Compound 49] | 0.8 to 6 µM | ♯
23 | CNCC#Cc1cccc(CN2O[C@@H](CO)[C@@H]([C@H](C)O)[C@H]2C(=O)N[C@H]2C[C@H]3CC([C@@H]2C)C3(C)C)c1 [Compound 50] | 0.8 to 6 µM | ♯
24 | C[C@@H](O)[C@H]1[C@@H](CO)ON(Cc2cccc(C#CCN(C)Cc3ccccc3)c2)[C@H]1C(=O)NCCCN(C)c1ccccc1 [Compound 51] | 0.8 to 6 µM | ♯
25 | C[C@H](O)[C@@H]1[C@H](CO)ON(Cc2cccc(C#C[C@@H](O)c3ccccc3)c2)[C@@H]1C(=O)N[C@H]1C[C@H]2CC([C@@H]1C)C2(C)C [Compound 52] | 0.8 to 6 µM | ♯
26 | C[C@@H](O)[C@@H]1C(C(=O)NCCCn2cnc3ccccc32)N(Cc2cccc(C#CCNC(=O)c3ccccc3)c2)O[C@@H]1CO (stereo partly drawn) [Compound 55] | > 50 µM | ♯♯
27 | C[C@H](O)[C@@H]1[C@H](CO)ON(Cc2cccc(C#CCNC(=O)c3ccccc3)c2)[C@@H]1C(=O)N[C@H]1C[C@H]2CC([C@@H]1C)C2(C)C [Compound 57] | 0.8 to 6 µM | ♯
28 | C[C@@H](O)[C@H]1[C@@H](CO)ON(Cc2cccc(C#CCNC(=O)c3ccccc3)c2)[C@H]1C(=O)NCc1ccc(-c2ccccc2)cc1 [Compound 60] | > 50 µM | ♯♯
29 | C[C@@H](O)[C@H]1[C@@H](CO)ON(Cc2cccc(C#CCNC(=O)c3ccccc3)c2)[C@H]1C(=O)NCCNCc1ccccc1 [Compound 61] | 6 to 50 µM | ♯
30 | C[C@@H](O)[C@@H]1C(C(=O)NCCCN(C)c2ccc(Cl)cc2)N(Cc2cccc(C#CCNC(=O)c3ccccc3)c2)O[C@@H]1CO (stereo partly drawn) [Compound 62] | 6 to 50 µM | ♯♯
31 | C[C@@H]1[C@@H](NC(=O)[C@@H]2[C@H]([C@H](C)O)[C@H](CO)ON2Cc2cccc(C#CCNCc3ccccn3)c2)C[C@H]2C[C@@H]1C2(C)C [Compound 66] | 0.8 to 6 µM | 
32 | C[C@@H]1[C@@H](NC(=O)[C@@H]2[C@H]([C@H](C)O)[C@H](CO)ON2Cc2cccc(C#CCNCc3c[nH]c4ccccc34)c2)C[C@H]2C[C@@H]1C2(C)C [Compound 68] | 0.8 to 6 µM | 
33 | C[C@@H](O)[C@H]1[C@@H](CO)ON(Cc2cccc(C#CCNCc3ccc(-c4ccccc4)cc3)c2)[C@H]1C(=O)NCCCN(C)c1ccccc1 [Compound 71] | 6 to 50 µM | 
34 | C[C@@H](O)[C@H]1[C@@H](CO)ON(Cc2cccc(C#CCNS(=O)(=O)c3ccc(Oc4ccccc4)cc3)c2)[C@H]1C(=O)NCCCN(C)c1ccccc1 [Compound 72] | 6 to 50 µM | 
35 | C[C@@H]1[C@@H](NC(=O)C2[C@H]([C@H](C)O)[C@H](CO)ON2Cc2cccc(C#CCNS(=O)(=O)c3ccc(-c4ccccc4)cc3)c2)C[C@H]2C[C@@H]1C2(C)C (stereo partly drawn) [Compound 73] | 0.8 to 6 µM | 
36 | C[C@@H]1[C@@H](NC(=O)[C@@H]2[C@H]([C@H](C)O)[C@H](CO)ON2Cc2cccc(C#CCNS(=O)(=O)Cc3ccccc3)c2)C[C@H]2C[C@@H]1C2(C)C [Compound 74] | 0.8 to 6 µM | 
37 | C[C@@H](O)[C@H]1[C@@H](CO)ON(Cc2cccc(C#CCNS(=O)(=O)c3cccc4cccnc34)c2)[C@H]1C(=O)NCCCN(C)c1ccccc1 [Compound 75] | 0.8 to 6 µM | 
38 | C[C@@H]1[C@@H](NC(=O)[C@@H]2[C@H]([C@H](C)O)[C@H](CO)ON2Cc2cccc(C#CCNS(=O)(=O)c3ccccc3)c2)C[C@H]2C[C@@H]1C2(C)C [Compound 76] | 0.8 to 6 µM | 
39 | C[C@@H](O)[C@H]1[C@@H](CO)ON(Cc2cccc(C#CCNC(=O)NCc3ccccc3)c2)[C@H]1C(=O)NCCCN(C)c1ccccc1 [Compound 77] | 0.8 to 6 µM | 
40 | C[C@@H]1[C@@H](NC(=O)[C@@H]2[C@H]([C@H](C)O)[C@H](CO)ON2Cc2cccc(C#CCNC(=O)NCc3ccccc3)c2)C[C@H]2C[C@@H]1C2(C)C [Compound 78] | 0.8 to 6 µM | 
41 | C[C@@H](O)[C@H]1[C@@H](CO)ON(Cc2cccc(C#CCNC(=O)Nc3ccccc3)c2)[C@H]1C(=O)NCCCN(C)c1ccccc1 [Compound 79] | 0.8 to 6 µM | 
42 | C[C@@H](O)[C@H]1[C@@H](CO)ON(Cc2cccc(C#CCNC(=O)NC3CC3c3ccccc3)c2)[C@H]1C(=O)NCCCN(C)c1ccccc1 (stereo partly drawn) [Compound 80] | 0.8 to 6 µM | 

Reference: patent publication US7851637B2, “Compounds and methods for inhibiting the interaction of BCL proteins with binding partners” (Infinity Pharmaceuticals, Inc., priority 2004, dated 2010)
